# Reference: patent US9914730B2, “Azaquinazoline inhibitors of Atypical protein Kinase C” (Ignyta, Inc., priority 2012, dated 2018)
# Biological target: T1, full-length human PKCι (Homo sapiens, UniProt P41743)
# T1 construct: Recombinant, full-length human PKCι expressed in Sf21 insect cells is also commercially available; purchased; host or cells: Sf21 insect cells
# T1 sequence (P41743 1-596): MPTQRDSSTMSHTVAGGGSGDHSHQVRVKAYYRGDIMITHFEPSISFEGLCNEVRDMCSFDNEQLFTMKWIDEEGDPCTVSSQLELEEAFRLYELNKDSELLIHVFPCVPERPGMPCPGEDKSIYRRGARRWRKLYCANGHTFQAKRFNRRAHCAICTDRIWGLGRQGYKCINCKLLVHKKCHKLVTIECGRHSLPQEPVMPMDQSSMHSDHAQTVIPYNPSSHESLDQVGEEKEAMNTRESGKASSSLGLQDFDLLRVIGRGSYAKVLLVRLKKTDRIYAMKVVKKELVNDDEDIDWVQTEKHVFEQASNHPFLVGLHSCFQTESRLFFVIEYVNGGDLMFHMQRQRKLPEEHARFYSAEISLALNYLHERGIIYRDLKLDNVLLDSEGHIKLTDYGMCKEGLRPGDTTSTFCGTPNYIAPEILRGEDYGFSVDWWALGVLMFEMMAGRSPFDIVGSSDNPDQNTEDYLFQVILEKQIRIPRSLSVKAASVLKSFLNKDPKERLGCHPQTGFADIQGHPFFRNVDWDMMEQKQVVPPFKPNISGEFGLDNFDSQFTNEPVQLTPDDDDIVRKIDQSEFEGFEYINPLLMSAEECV
# Assay: PKCι IC50 IMAP assay, full-length PKCι at 150 μM ATP
# Format: biochemical
# Conditions: read-out: IC50 in IMAP assay against full length PKCi at 150 μM ATP
# Procedure, shortened: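 IC50 from IMAP FP (ex 485/em 530 nm) after 60 min room-temperature reaction in pH 7.5 tris buffer with 9 mM MgCl2 and 0.9 mM DTT. Enzyme: full-length Sf21-expressed PKCι (~15 pM); ATP 150 μM, five times KM^APP; FAM-labelled peptide 100 nM; DMSO 4%.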
compound,measurement,value
"C[C@@H]1CN(c2nc(-c3ccnc(NC4CCN(CC(F)(F)F)CC4)c3)nc3cncc(C4CC4)c23)C[C@H](C)N1 [Example 2073, {4-[5-Cyclopropyl-4-((cis)-3,5-dimethyl-piperazin-1-yl)-pyrido[3,4-d]pyrimidin-2-yl]-pyridin-2-yl}-[1-(2,2,2-trifluoro-ethyl)-piperidin-4-yl]-amine]",IC50,< 100 nM
"Fc1cnc(Nc2cc(-c3nc(N4CCNCC4)c4c(C(F)(F)F)cncc4n3)ccn2)c(F)c1 [Example 2194, (3,5-Difluoro-pyridin-2-yl)-[4-(4-piperazin-1-yl-5-trifluoromethyl-pyrido[3,4-d]pyrimidin-2-yl)-pyridin-2-yl]-amine]",IC50,< 100 nM
"CN(c1nc(-c2ccnc(Nc3ncc(F)cc3F)c2)nc2cncc(C3CC3)c12)C1CCOCC1 [Example 2172, {5-Cyclopropyl-2-[2-(3,5-difluoro-pyridin-2-ylamino)-pyridin-4-yl]-pyrido[3,4-d]pyrimidin-4-yl}-methyl-(tetrahydro-pyran-4-yl)-amine]",IC50,1000 to 10000 nM
"COc1cncc2nc(-c3ccncc3)nc(N3CCN(CC(N)=O)[C@@H](Cc4ccccc4)C3)c12 [Example 48, 2-[(2S)-2-benzyl-4-[5-methoxy-2-(pyridin-4-yl)-pyrido[3,4-d]-pyrimidin-4-yl]-piperazin-1-yl]acetamide]",IC50,1000 to 10000 nM
"N[C@H](CNc1nc(-c2ccncc2)nc2c(-c3ccccc3O)nccc12)Cc1ccccc1 [Example 105, 2-(4-{[(2S)-2-amino-3-phenylpropyl]-amino}-2-(pyridin-4-yl)-pyrido[3,4-d]-pyrimidin-8-yl)phenol]",IC50,< 100 nM
"FC(F)(F)c1cc2c(-c3nc(N4CCCCC4)c4c(C5CC5)cncc4n3)ccnc2[nH]1 [Example 1237, 5-Cyclopropyl-4-piperidin-1-yl-2-(2-trifluoromethyl-1H-pyrrolo[2,3-b]pyridin-4-yl)-pyrido[3,4-d]pyrimidine]",IC50,100 to 1000 nM
"COc1cncc2nc(-c3ccnc(Nc4ccccc4C(F)(F)F)c3)nc(N3CCNCC3)c12 [Example 445, [4-(5-Methoxy-4-piperazin-1-yl-pyrido[3,4-d]pyrimidin-2-yl)-pyridin-2-yl]-(2-trifluoromethyl-phenyl)-amine]",IC50,100 to 1000 nM
"CC(=O)Nc1cc(-c2nc(N3CCN[C@@H](CS(C)(=O)=O)C3)c3c(C4CC4)cncc3n2)ccn1 [Example 770, N-{4-[5-Cyclopropyl-4-((R)-3-methanesulfonyl-methyl-piperazin-1-yl)-pyrido[3,4-d]pyrimidin-2-yl]-pyridin-2-yl}-acetamide]",IC50,100 to 1000 nM
COc1cncc2nc(-c3ccnc(Nc4ccccc4)c3)nc(N3CCN[C@@H](C4CC4)C3)c12 [Example 236],IC50,100 to 1000 nM
"COc1cncc2nc(-c3ccnc(Nc4ccc(C#N)cc4F)c3)nc(N3CCNCC3)c12 [Example 419, 3-Fluoro-4-[4-(5-methoxy-4-piperazin-1-yl-pyrido[3,4-d]pyrimidin-2-yl)-pyridin-2-ylamino]-benzonitrile]",IC50,100 to 1000 nM
"Cc1ccnc(Nc2cc(-c3nc(N4CCNCC4)c4c(Cl)cncc4n3)ccn2)c1 [Example 256, [4-(5-Chloro-4-piperazin-1-yl-pyrido[3,4-d]pyrimidin-2-yl)-pyridin-2-yl]-(4-methyl-pyridin-2-yl)-amine]",IC50,< 100 nM
"Fc1ccc(C2CC2)cc1Nc1cc(-c2nc(N3CCNCC3)c3c(C4CC4)cncc3n2)ccn1 [Example 667, (5-Cyclopropyl-2-fluoro-phenyl)-[4-(5-cyclopropyl-4-piperazin-1-yl-pyrido[3,4-d]pyrimidin-2-yl)-pyridin-2-yl]-amine]",IC50,< 100 nM
"FC1(F)CCC(Nc2cc(-c3nc(N4CCNCC4)c4c(C5CC5)cncc4n3)ccn2)CC1 [Example 510, [4-(5-Cyclopropyl-4-piperazin-1-yl-pyrido[3,4-d]pyrimidin-2-yl)-pyridin-2-yl]-(4,4-difluoro-cyclohexyl)-amine]",IC50,< 100 nM
